# Patent US20230323432A1, “ASSAY FOR DETECTING POINT MUTATIONS” (Bakotic Pathology Associates, LLC, priority 2022, published 2023)
# Legend:
# [1] = tested on: T mentagrophytes (ATCC-28146); assay: Terbinafine susceptibility testing of isolates by culture on terbinafine-containing agar (CLSI M38-A3); conditions: wild type strain ATCC-28146
# Description: (§1) The isolates are re-tested for terbinafine drug resistance by plating the isolates on the sabouraud dextrose agar (SDA)/Potato dextrose agar (PDA) plates containing different concentration of terbinafine. Reagent-grade terbinafine (TRB) were obtained in the powder form (Sigma-Aldrich, Missouri, USA). Drug stock solutions were prepared in dimethyl sulfoxide (DMSO). The dermatophyte isolates were cultured on SDA/PDA for 21-30 days. In vitro testing of the susceptibility to Terbinafine allylamine was performed according to the Clinical and Laboratory Standards Institute (CLSI) document M38-A3 (CLSI, 2018). The drugs were analyzed at the final concentration in the range of 0.002-32 μg/ml for TRB.
# (§2) Wild type strains for T rubrum (ATCC-22402) and T mentagrophytes (ATCC-28146) are obtained from ATCC.
# T rubrum (ATCC-22402) = assay: as above; conditions: wild type strain ATCC-22402
# Description: as §1, §2
structure (smiles),measurement,setting,value
CN(C/C=C/C#CC(C)(C)C)Cc1cccc2ccccc12 [terbinafine],terbinafine susceptibility by culture,[1],susceptible
same,terbinafine susceptibility by culture,T rubrum (ATCC-22402),susceptible
